Patent US20220089733A1, “NOVEL APPROACH FOR TREATMENT OF CANCER USING IMMUNOMODULATION” (BioXcel Therapeutics, Inc., priority 2018, published 2022)

Columns and labels:
[1] = in vivo; cited from earlier work
melanoma = melanoma patients; cited from earlier work
CYP1A2 [2] = biological target: CYP1A2 (Homo sapiens, UniProt P05177); conditions: human liver CYP isoenzymes; preclinical studies
CYP2C8 = biological target: T1, CYP2C8 (Homo sapiens, UniProt P10632)
T1 sequence (P10632 1-490): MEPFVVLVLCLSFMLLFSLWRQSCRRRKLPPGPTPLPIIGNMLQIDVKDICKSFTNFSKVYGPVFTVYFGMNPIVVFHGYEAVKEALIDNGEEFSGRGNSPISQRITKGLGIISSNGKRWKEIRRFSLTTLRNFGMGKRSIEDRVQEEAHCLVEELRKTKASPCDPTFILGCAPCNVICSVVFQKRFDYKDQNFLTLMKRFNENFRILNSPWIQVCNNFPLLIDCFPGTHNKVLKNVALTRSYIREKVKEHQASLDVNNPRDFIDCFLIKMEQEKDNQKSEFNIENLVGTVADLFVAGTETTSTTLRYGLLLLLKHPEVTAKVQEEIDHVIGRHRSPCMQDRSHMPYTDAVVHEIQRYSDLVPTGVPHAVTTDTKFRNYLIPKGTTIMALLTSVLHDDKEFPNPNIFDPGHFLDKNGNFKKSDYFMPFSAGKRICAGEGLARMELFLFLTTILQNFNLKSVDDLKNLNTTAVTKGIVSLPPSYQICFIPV

CYP2C9 = CYP2C9 (Homo sapiens, UniProt P11712)
CYP2C9, sequence (P11712 whole entry): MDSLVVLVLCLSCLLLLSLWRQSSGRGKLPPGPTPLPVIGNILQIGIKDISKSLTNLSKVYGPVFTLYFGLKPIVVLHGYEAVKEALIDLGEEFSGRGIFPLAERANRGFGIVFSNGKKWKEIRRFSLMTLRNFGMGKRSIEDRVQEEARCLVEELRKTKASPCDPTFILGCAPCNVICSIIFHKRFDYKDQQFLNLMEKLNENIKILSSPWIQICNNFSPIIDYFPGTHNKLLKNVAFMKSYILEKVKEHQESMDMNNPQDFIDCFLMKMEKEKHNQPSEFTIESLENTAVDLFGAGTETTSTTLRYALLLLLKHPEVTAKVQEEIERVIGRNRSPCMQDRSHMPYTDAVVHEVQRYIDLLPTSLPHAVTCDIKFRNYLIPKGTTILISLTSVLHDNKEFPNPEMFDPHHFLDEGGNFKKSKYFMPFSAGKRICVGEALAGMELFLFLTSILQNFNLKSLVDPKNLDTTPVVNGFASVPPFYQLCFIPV

CYP2C19 = CYP2C19 (Homo sapiens, UniProt P33261)
CYP2C19, sequence (P33261 whole entry): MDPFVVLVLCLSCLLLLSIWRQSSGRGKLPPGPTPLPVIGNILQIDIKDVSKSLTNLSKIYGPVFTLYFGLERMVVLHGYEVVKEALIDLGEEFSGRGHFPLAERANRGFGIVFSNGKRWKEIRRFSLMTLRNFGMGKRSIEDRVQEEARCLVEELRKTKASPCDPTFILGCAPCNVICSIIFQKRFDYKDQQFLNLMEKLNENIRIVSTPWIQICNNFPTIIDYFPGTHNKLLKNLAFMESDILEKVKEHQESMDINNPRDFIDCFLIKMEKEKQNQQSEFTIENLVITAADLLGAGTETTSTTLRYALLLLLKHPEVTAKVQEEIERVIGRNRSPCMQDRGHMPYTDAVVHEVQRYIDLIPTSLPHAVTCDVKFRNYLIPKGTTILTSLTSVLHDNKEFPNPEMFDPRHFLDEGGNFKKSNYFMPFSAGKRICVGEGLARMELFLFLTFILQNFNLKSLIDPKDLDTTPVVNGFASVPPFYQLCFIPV

CYP2D6 = CYP2D6 (Homo sapiens, UniProt P10635)
CYP2D6, sequence (P10635 whole entry): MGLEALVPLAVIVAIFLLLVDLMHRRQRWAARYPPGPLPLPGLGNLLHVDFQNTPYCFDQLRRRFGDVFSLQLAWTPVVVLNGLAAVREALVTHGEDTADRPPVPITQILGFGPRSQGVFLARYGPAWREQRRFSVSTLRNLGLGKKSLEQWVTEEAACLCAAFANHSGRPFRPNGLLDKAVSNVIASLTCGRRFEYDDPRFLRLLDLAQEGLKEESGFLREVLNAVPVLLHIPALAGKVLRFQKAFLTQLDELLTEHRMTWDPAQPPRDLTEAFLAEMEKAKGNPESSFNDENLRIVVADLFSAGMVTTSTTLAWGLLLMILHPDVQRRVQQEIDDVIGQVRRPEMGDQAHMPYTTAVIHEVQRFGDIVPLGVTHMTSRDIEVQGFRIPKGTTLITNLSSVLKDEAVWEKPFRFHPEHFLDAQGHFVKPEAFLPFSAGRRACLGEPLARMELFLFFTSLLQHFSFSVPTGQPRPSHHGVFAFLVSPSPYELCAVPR

CYP3A4 [3] = biological target: CYP3A4 (Homo sapiens, UniProt P08684)
CYP3A4 (Homo sapiens, UniProt P08684), sequence (P08684 whole entry): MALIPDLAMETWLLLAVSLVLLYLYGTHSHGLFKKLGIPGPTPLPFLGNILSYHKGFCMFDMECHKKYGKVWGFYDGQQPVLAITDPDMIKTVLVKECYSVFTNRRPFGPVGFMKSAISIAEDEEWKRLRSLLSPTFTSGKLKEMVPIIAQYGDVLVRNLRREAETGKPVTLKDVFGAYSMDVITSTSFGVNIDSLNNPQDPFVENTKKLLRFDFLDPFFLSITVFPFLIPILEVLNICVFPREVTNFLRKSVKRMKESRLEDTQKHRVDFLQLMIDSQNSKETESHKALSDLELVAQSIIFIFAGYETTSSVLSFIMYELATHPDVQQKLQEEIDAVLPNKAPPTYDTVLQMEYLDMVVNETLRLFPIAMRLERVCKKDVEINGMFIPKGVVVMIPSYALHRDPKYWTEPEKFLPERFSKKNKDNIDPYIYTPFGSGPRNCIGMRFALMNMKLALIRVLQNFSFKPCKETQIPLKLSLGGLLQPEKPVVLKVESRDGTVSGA

CYP3A4 [4] = system: CYP3A4
CYP1A2 [5] = system: CYP1A2

CYP1A2 (Homo sapiens, UniProt P05177), sequence (P05177 whole entry): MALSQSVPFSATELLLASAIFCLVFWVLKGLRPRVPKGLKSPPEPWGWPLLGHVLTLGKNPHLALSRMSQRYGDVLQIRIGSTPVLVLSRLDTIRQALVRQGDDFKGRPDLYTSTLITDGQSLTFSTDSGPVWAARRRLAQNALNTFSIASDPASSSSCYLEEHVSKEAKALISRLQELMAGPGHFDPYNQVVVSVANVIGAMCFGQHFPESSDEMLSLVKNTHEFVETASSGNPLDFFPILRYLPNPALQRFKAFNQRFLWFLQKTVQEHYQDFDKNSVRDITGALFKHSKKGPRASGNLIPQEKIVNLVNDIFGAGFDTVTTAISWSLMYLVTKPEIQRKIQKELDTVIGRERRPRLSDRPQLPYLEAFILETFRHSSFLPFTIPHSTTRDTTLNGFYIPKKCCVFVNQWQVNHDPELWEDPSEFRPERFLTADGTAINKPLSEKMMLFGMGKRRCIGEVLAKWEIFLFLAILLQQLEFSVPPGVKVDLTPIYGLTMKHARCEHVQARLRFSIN

In the case of `CC(C)[C@H](N)C(=O)N1CCC[C@H]1B(O)O` [Talabostat, [(2R)-1-[(2S)-2-amino-3-methylbutanoyl]pyrrolidin-2-yl]boronic acid], the “Most common / most frequently observed adverse events” value [1] is listed as “edema/peripheral swelling, hypotension, hypovolemia, and dizziness”.

For “Ipilimumab: CTLA-4 antagonist antibody, checkpoint inhibitor”, the Response rate (melanoma) is listed as 11%.

In the case of “Nivolumab: PD-1 antagonist antibody, checkpoint inhibitor”, the Response rate (melanoma) is listed as 32%.

With Talabostat mesylate the “Potential to inhibit CYP1A2” value (CYP1A2 [2]) was “low potential”, the “Potential to inhibit CYP2C8” value (CYP2C8) was “low potential” and the “Potential to inhibit CYP2C9” value (CYP2C9) was “low potential”. For the same compound, the “Potential to inhibit CYP2C19” value (CYP2C19) was “low potential”, the “Potential to inhibit CYP2D6” value (CYP2D6) was “low potential” and the “Potential to inhibit CYP3A4” value (CYP3A4 [3]) was “low potential”. The “Induction of CYP3A4” value (CYP3A4 [4]) was “did not induce”, the “Induction of CYP1A2” value (CYP1A2 [5]) was “did not induce” and the “Most common / most frequently observed adverse events” value [1] was “edema/peripheral swelling, hypotension, dizziness, and hypovolemia”.
